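96-well plates; 48 h exposure; 5 concentrations. Endpoints by linear interpolation between flanking doses. Not reached: highest tested concentration assigned. GI50: concentration for 50% inhibition of growth.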 The source made the active and inactive calls. Cut-off read from the data, not from the text of the source: active = GI50 up to about 1.1 µM and inactive = higher.
Assays:
Assay in all cases: DTP human tumour cell line panel, 48 h
ACHN = system: ACHN
BT-549 = system: BT-549
COLO 205 = system: COLO 205
HCT-15 = system: HCT-15
Hs-578T = system: Hs-578T
K562 = system: K562
LOX IMVI = system: LOX IMVI
MCF7 = system: MCF7
MOLT-4 = system: MOLT-4
NCI-H226 = system: NCI-H226
NCI-H23 = system: NCI-H23
NCI-H522 = system: NCI-H522
OVCAR-3 = system: OVCAR-3
OVCAR-5 = system: OVCAR-5
SF-268 = system: SF-268
SF-295 = system: SF-295
SK-MEL-28 = system: SK-MEL-28
SK-MEL-5 = system: SK-MEL-5
SR = system: SR
T47D = system: T47D

`S=C1NN=C2C(=C3CCCC4C5CCCCC5N2C34)N1` (stereo not given) was tested, and the GI50 (ACHN) was > 100 µM (inactive), the GI50 (BT-549) was > 100 µM (inactive) and the GI50 (COLO 205) was 33 µM (inactive). For the same compound, the GI50 (HCT-15) was > 100 µM, the GI50 (Hs-578T) was > 100 µM (inactive) and the GI50 (K562) was 38 µM (inactive). The GI50 (LOX IMVI) was 56.4 µM (inactive), the GI50 (MCF7) was 44.5 µM (inactive) and the GI50 (MOLT-4) was 38 µM (inactive). For the same compound, the GI50 (NCI-H226) was 0.678 µM (active), the GI50 (NCI-H23) was > 100 µM (inactive) and the GI50 (NCI-H522) was 62.2 µM (inactive). The GI50 (OVCAR-3) was > 100 µM (inactive), the GI50 (OVCAR-5) was > 100 µM (inactive) and the GI50 (SF-268) was > 100 µM (inactive). The GI50 (SF-295) was > 100 µM (inactive), the GI50 (SK-MEL-28) was > 100 µM (inactive) and the GI50 (SK-MEL-5) was 82.6 µM (inactive). For the same compound, the GI50 (SR) was 83.4 µM (inactive) and the GI50 (T47D) was 24.8 µM (inactive).
